{"source": "patent US20230203471A1", "about": "“METHOD AND PLATFORM FOR DISRUPTING INTRACELLULAR MICROTUBULES” (National Tsing Hua University, priority 2021, published 2023)", "key": {"[1]": {"tested_on": "intracellular microtubules in HeLa cells", "experiment": "Live-cell imaging of MT disruption (MT filament area) in transfected HeLa cells", "type": "cell-based", "procedure": "The procedures of live-cell imaging are as follows. Live transfected cells cultured on poly(d-lysine)-coated glass coverslips (Hecht Assistent) were treated with either 100 nM rapamycin for rapid induction of protein dimerization and translocation or MT-targeting agents (10 µM nocodazole or 500 µM colchicine) during imaging. Live-cell imaging was conducted on a Nikon T1 inverted fluorescence microscope (Nikon) with a 60× oil objective (Nikon), a Prime camera (Photometrics), and 37° C., 5% CO2 heat stage (Live Cell Instrument). Rapid recruitment of proteins of interest (POIs) was imaged at 5- or 10-sec intervals, whereas the process of MT disruption was imaged at 1-min intervals. Images were obtained using Nikon NIS-Elements AR software and processed with Huygens Deconvolution Software (Scientific Volume Imaging). Image analysis was mainly performed with Nikon NIS-Elements AR software.\nThe procedures of measurement of MT filament area are as follows. The MT filaments in living cells were labeled with EMTB-CFP-FRB and imaged in real time (RAW image). The rolling ball correction was used to remove the cytosol background from the RAW images, which was carried out with the Nikon NIS-Elements AR software. Images were processed to generate the binary MT filament pattern via the Otsu threshold and analyzed by Fiji software.\nFIGS. 2D and 2E show rapidly recruiting engineered spastins onto MTs. […] The top three layers are cells that simultaneously express EMTB-CFP-FRB and dNSpastin3Q-YFP-FKBP. The lower three layers are cells that simultaneously express EMTB-CFP-FRB and dNSpastin-YFP-FKBP-C2Lact. The color bar on the right indicates the brightness value represented by the color of the FRET signal. […] Data are shown as the mean ± S.E.M. It was noteworthy that MT disruption triggered by dNSpastin3Q-YFP-FKBP upon rapamycin treatment (T½ = 11.05 ± 1.52 min) was much faster than that of dNSpastin-YFP-FKBP-C2Lact upon rapamycin treatment (T½ = 53.08 ± 8.08 min), and treatment of two common MTAs, nocodazole (10 µM; T½ = 54.02 ± 10.29 min), colchicine (500 µM; T½ = 94.28 ± 8.63 min; see FIGS. 2F to 2J). […] In FIG. 2H, HeLa cells transfected with the indicated constructs were treated with nocodazole (Noc)([…], a type of MTA), colchicine (Col)(500 µM, a type of MTA), or rapamycin (Rapa)(100 nM); scale bar, 10 µm. […] Data are shown as the mean ± S.E.M. Student’s t-tests were performed, with the resulting p-values indicated."}, "[2]": {"tested_on": "intracellular microtubules in HeLa cells", "experiment": "Live-cell imaging of MT disruption (MT filament area) in transfected HeLa cells", "type": "cell-based", "conditions": "nocodazole 3.3 µM"}}, "data": [{"molecule": "COC(=O)Nc1nc2ccc(C(=O)c3cccs3)cc2[nH]1", "note": "[nocodazole]", "values": [{"measurement": "microtubules removed within one hour", "setting": "[1]; 3.3 µM nocodazole", "result": 31, "unit": "%"}, {"measurement": "T½ of MT disruption", "setting": "[1]; nocodazole 10 µM, HeLa cells", "result": "54.02 ± 10.29", "unit": "min"}, {"measurement": "time required to disrupt half of the intracellular microtubules", "setting": "[2]", "result": "106.86 ± 12.11", "unit": "min"}]}]}
